In this experiment the target is FGFR3 enzyme (Homo sapiens (Human), UniProt P22607). The experiment is described as follows: FGFR Enzymatic Assay (peptide phosphorylation, FRET). The experiment is classed as biochemical. To be noted: pre-incubated for 4 hours; ATP 140 μM; 25° C. for 1 hr. On the procedure: The inhibitor potency of the exemplified compounds was measured in an enzyme assay that measures peptide phosphorylation using FRET measurements to detect product formation. Inhibitors were serially diluted in DMSO and a volume of 0.5 μL was transferred to the wells of a 384-well plate. For FGFR3, a 10 μL volume of FGFR3 enzyme (Millipore) diluted in assay buffer (50 mM HEPES, 10 mM MgCl2, 1 mM EGTA, 0.01% Tween-20, 5 mM DTT, pH 7.5) was added to the plate and pre-incubated for a time between 5-10 minutes and up to 4 hours. Appropriate controls (enzyme blank and enzyme with no inhibitor) were included on the plate. The assay was initiated by the addition of a 10 μL solution containing biotinylated EQEDEPEGDYFEWLE peptide substrate (SEQ ID NO: 1) and ATP (final concentrations of 500 nM and 140 μM respectively) in assay buffer to the wells. The plate was incubated at 25° C. for 1 hr. The reactions were ended with the addition of 10 μL/well of quench solution (50 mM Tris, 150 mM NaCl, 0.5 mg/mL BSA, pH 7.8; 30 mM EDTA with Perkin Elmer Lance Reagents at 3.75 nM Eu-antibody PY20 and 180 nM APC-Streptavidin). The plate was allowed to equilibrate for ˜1 hr before scanning the wells on a PheraStar plate reader (BMG Labtech).
Chain of FGFR3 enzyme (P22607 23-806): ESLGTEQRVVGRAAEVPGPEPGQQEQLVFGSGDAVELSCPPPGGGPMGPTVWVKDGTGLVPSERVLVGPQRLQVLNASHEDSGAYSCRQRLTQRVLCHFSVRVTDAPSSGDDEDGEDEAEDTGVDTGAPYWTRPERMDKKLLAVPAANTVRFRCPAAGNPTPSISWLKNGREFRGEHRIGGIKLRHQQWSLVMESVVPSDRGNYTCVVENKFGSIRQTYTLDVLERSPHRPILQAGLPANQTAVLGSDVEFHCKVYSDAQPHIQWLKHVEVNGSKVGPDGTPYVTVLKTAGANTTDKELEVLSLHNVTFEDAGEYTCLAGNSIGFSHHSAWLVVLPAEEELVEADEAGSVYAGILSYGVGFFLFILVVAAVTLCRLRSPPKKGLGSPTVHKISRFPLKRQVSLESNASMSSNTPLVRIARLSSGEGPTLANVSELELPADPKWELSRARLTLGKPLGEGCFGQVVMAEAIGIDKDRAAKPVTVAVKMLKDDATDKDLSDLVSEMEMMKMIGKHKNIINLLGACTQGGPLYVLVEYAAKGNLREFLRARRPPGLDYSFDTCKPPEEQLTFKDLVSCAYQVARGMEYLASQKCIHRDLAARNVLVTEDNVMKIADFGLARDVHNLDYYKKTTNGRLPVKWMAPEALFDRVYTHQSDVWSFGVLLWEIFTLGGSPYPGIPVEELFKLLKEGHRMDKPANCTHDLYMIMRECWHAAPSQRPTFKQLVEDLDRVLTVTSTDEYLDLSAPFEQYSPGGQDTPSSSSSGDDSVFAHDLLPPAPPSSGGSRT
GraphPad prism3 was used to analyze the data. The IC50 values were derived by fitting the data to the equation for a sigmoidal dose-response with a variable slope. Y=Bottom+(Top−Bottom)/(1+10^((LogIC50−X)*HillSlope)) where X is the logarithm of concentration and Y is the response.
Table 1 provides IC50 data for compounds of the invention assayed in the FGFR Enzymatic Assay after dilution in assay buffer, added to the plate and pre-incubated for 4 hours. The symbol: “+” indicates an IC50 less than 10 nM; “++” indicates an IC50 greater than or equal to 10 nM but less than 30 nM; “+++” indicates an IC50 greater than or equal to 30 nM but less than 200 nM; and “++++” indicates an IC50 greater than or equal to 200 nM.
Regarding `Cn1cc(-c2n[nH]c3ccc(N4CCn5cnc(C(F)(F)F)c5C4)nc23)cn1` [Example 2, 3-(1-Methyl-1H-pyrazol-4-yl)-5-(1-(trifluoromethyl)-5,6-dihydroimidazo[1,5-a]pyrazin-7(8H)-yl)-1H-pyrazolo[4,3-b]pyridine], the IC50 (commonly the point on the concentration scale where inhibition reaches its midpoint) was under 0.01 µM. `Cc1cc2[nH]nc(-c3cnn(C)c3)c2nc1N1CCN(C)C(=O)C1C` (centres unmarked) [Example 22, 1,3-Dimethyl-4-(6-methyl-3-(1-methyl-1H-pyrazol-4-yl)-1H-pyrazolo[4,3-b]pyridin-5-yl)piperazin-2-one] returned an IC50 of 0.03 to 0.2 µM. The same measure for `CCC1(CC)C(=O)N(C)CCN1c1ccc2[nH]nc(-c3cnn(C)c3)c2n1` [Example 7, 3,3-Diethyl-1-methyl-4-(3-(1-methyl-1H-pyrazol-4-yl)-1H-pyrazolo[4,3-b]pyridin-5-yl)piperazin-2-one]: 0.01 to 0.03 µM. In turn, `CC(C)C1C(=O)N(C)CCN1c1ccc2[nH]nc(-c3cnn(C)c3)c2n1` (centres unmarked) [Example 5, 3-Isopropyl-1-methyl-4-(3-(1-methyl-1H-pyrazol-4-yl)-1H-pyrazolo[4,3-b]pyridin-5-yl)piperazin-2-one] returned an IC50 of under 0.01 µM. The same measure for `CC(C)C1C(=O)N(C)CCN1c1ccc2[nH]nc(-c3ccc(N4CCN(C)CC4)c(F)c3)c2n1` (centres unmarked) [Example 18, 4-(3-(3-Fluoro-4-(4-methylpiperazin-1-yl)phenyl)-1H-pyrazolo[4,3-b]pyridin-5-yl)-3-isopropyl-1-methylpiperazin-2-one]: under 0.01 µM; for `CC(C)C1C(=O)N(C)CCN1c1ccc2[nH]nc(-c3cnn(CCN4CCOCC4)c3)c2n1` (centres unmarked) [Example 17, 3-Isopropyl-1-methyl-4-(3-(1-(2-morpholinoethyl)-1H-pyrazol-4-yl)-1H-pyrazolo[4,3-b]pyridin-5-yl)piperazin-2-one]: 0.01 to 0.03 µM. Consider `CC1C(=O)N(C)CCN1c1nc2c(-c3cnn(C)c3)n[nH]c2cc1-c1ccoc1` (centres unmarked) [Example 25, 4-(6-(Furan-3-yl)-3-(1-methyl-1H-pyrazol-4-yl)-1H-pyrazolo[4,3-b]pyridin-5-yl)-1,3-dimethylpiperazin-2-one], for which the IC50 lay within 0.03 to 0.2 µM. On to `CC1CN(c2ccc3[nH]nc(-c4cnn(C)c4)c3n2)C(C)C(=O)N1C` (centres unmarked) [Example 15, 1,3,6-Trimethyl-4-(3-(1-methyl-1H-pyrazol-4-yl)-1H-pyrazolo[4,3-b]pyridin-5-yl)piperazin-2-one], for which the IC50 is under 0.01 µM. The same measure for `CC(c1ccccc1)C1C(=O)N(C)CCN1c1ccc2[nH]nc(-c3cnn(C)c3)c2n1` (centres unmarked) [Example 12, 1-Methyl-4-(3-(1-methyl-1H-pyrazol-4-yl)-1H-pyrazolo[4,3-b]pyridin-5-yl)-3-(1-phenylethyl)piperazin-2-one]: under 0.01 µM; for `CN1CCN(c2ccc3[nH]nc(-c4cnn(C)c4)c3n2)C(Cc2ccccc2)C1=O` (centres unmarked) [Example 8, 3-Benzyl-1-methyl-4-(3-(1-methyl-1H-pyrazol-4-yl)-1H-pyrazolo[4,3-b]pyridin-5-yl)piperazin-2-one]: 0.01 to 0.03 µM; for `Cn1cc(-c2n[nH]c3ccc(N4CCCn5nccc54)nc23)cn1` [Example 3, 5-(6,7-Dihydropyrazolo[1,5-a]pyrimidin-4(5H)-yl)-3-(1-methyl-1H-pyrazol-4-yl)-1H-pyrazolo[4,3-b]pyridine]: at least 0.2 µM. Molecule `CC1C(=O)N(C)CCN1c1nc2c(-c3cnn(C)c3)n[nH]c2cc1Cc1ccccc1` (centres unmarked) [Example 26, 4-(6-Benzyl-3-(1-methyl-1H-pyrazol-4-yl)-1H-pyrazolo[4,3-b]pyridin-5-yl)-1,3-dimethylpiperazin-2-one] displayed an IC50 of 0.03 to 0.2 µM. Next, `CC1C(=O)N(C)CCN1c1nc2c(-c3cnn(C)c3)n[nH]c2cc1Cl` (centres unmarked) [Example 21, 4-(6-Chloro-3-(1-methyl-1H-pyrazol-4-yl)-1H-pyrazolo[4,3-b]pyridin-5-yl)-1,3-dimethylpiperazin-2-one]: 0.01 to 0.03 µM; `CC1C(=O)N(C)CCN1c1nc2c(-c3cnn(C)c3)n[nH]c2cc1C#N` (centres unmarked) [Example 23, 5-(2,4-Dimethyl-3-oxopiperazin-1-yl)-3-(1-methyl-1H-pyrazol-4-yl)-1H-pyrazolo[4,3-b]pyridine-6-carbonitrile]: 0.03 to 0.2 µM.

In the case of `CC(C)C1C(=O)N(C)CCN1c1ccc2[nH]nc(-c3cn(C)nn3)c2n1` (centres unmarked) [Example 20, 3-Isopropyl-1-methyl-4-(3-(1-methyl-1H-1,2,3-triazol-4-yl)-1H-pyrazolo[4,3-b]pyridin-5-yl)piperazin-2-one], the IC50 lay within 0.03 to 0.2 µM. `CN1CCN(c2ccc3[nH]nc(-c4cnn(C)c4)c3n2)C(C2CCOCC2)C1=O` (centres unmarked) [Example 10, 1-Methyl-4-(3-(1-methyl-1H-pyrazol-4-yl)-1H-pyrazolo[4,3-b]pyridin-5-yl)-3-(tetrahydro-2H-pyran-4-yl)piperazin-2-one] returned an IC50 of at least 0.2 µM. The molecule `Cn1cc(-c2n[nH]c3ccc(N4CCCC(O)C4)nc23)cn1` (centres unmarked) [Example 1, 1-(3-(1-Methyl-1H-pyrazol-4-yl)-1H-pyrazolo[4,3-b]pyridin-5-yl)piperidin-3-ol] returned an IC50 of at least 0.2 µM. Next, `CN1CCN(c2ccc3[nH]nc(-c4cnn(C)c4)c3n2)C(Cc2ccncc2)C1=O` (centres unmarked) [Example 11, 1-Methyl-4-(3-(1-methyl-1H-pyrazol-4-yl)-1H-pyrazolo[4,3-b]pyridin-5-yl)-3-(pyridin-4-ylmethyl)piperazin-2-one]: at least 0.2 µM; `CC(C)C1C(=O)N(C)CCN1c1ccc2[nH]nc(-c3cnn(Cc4cccnc4)c3)c2n1` (centres unmarked) [Example 16, 3-Isopropyl-1-methyl-4-(3-(1-(pyridin-3-ylmethyl)-1H-pyrazol-4-yl)-1H-pyrazolo[4,3-b]pyridin-5-yl)piperazin-2-one]: under 0.01 µM; `CCC1C(=O)N(C)CCN1c1ccc2[nH]nc(-c3cnn(C)c3)c2n1` (centres unmarked) [Example 6, 3-Ethyl-1-methyl-4-(3-(1-methyl-1H-pyrazol-4-yl)-1H-pyrazolo[4,3-b]pyridin-5-yl)piperazin-2-one]: under 0.01 µM. `CC1C(=O)N(C2CC2)CCN1c1ccc2[nH]nc(-c3cnn(C)c3)c2n1` (centres unmarked) [Example 14, 1-Cyclopropyl-3-methyl-4-(3-(1-methyl-1H-pyrazol-4-yl)-1H-pyrazolo[4,3-b]pyridin-5-yl)piperazin-2-one] had an IC50 of 0.01 to 0.03 µM.

As to `CN1CCN(c2ccc3[nH]nc(-c4cnn(C)c4)c3n2)C(CC2CC2)C1=O` (centres unmarked) [Example 9, 3-(Cyclopropylmethyl)-1-methyl-4-(3-(1-methyl-1H-pyrazol-4-yl)-1H-pyrazolo[4,3-b]pyridin-5-yl)piperazin-2-one], the IC50 is 0.01 to 0.03 µM.

`CN1CCN(c2ccc3[nH]nc(-c4cnn(C)c4)c3n2)C(C2CC2)C1=O` (centres unmarked) [Example 13, 3-Cyclopropyl-1-methyl-4-(3-(1-methyl-1H-pyrazol-4-yl)-1H-pyrazolo[4,3-b]pyridin-5-yl)piperazin-2-one] gave an IC50 of under 0.01 µM.

In turn, `CC(C)C1C(=O)N(C)CCN1c1ccc2[nH]nc(-c3cc4cnccc4s3)c2n1` (centres unmarked) [Example 19, 3-Isopropyl-1-methyl-4-(3-(thieno[3,2-c]pyridin-2-yl)-1H-pyrazolo[4,3-b]pyridin-5-yl)piperazin-2-one] displayed an IC50 of under 0.01 µM. For `COc1cc2[nH]nc(-c3cnn(C)c3)c2nc1N1CCN(C)C(=O)C1C` (centres unmarked) [Example 24, 4-(6-Methoxy-3-(1-methyl-1H-pyrazol-4-yl)-1H-pyrazolo[4,3-b]pyridin-5-yl)-1,3-dimethylpiperazin-2-one], the IC50 was 0.03 to 0.2 µM. Molecule `CN1CC2CCC(C1=O)N2c1ccc2[nH]nc(-c3cnn(C)c3)c2n1` (centres unmarked) [Example 4, 3-Methyl-8-(3-(1-methyl-1H-pyrazol-4-yl)-1H-pyrazolo[4,3-b]pyridin-5-yl)-3,8-diazabicyclo[3.2.1]octan-2-one] showed an IC50 of under 0.01 µM.

The record behind these values is patent publication US11591329B2, “Bicyclic heterocycles as FGFR inhibitors” (Incyte Corporation, priority 2019, dated 2023).
